Results as given in patent publication US11484029B2, “Method for controlling building-inhabiting pest and composition for controlling building-inhabiting pest” (priority 2017, dated 2022).

What was measured:
[1] = test system: Denken colony (susceptible strain) of German cockroach (Blattella germanica); assay: Repellency test (treated vs non-treated shelter); assay type: in vivo; settings: 0.3 μg/cm^2, after 7 days
Procedure: Sample: a compound represented by Formula (2), and etofenprox (control agent)
Test insect: Denken colony (susceptible strain) of German cockroach (Blattella germanica)
Test method: A test compound diluted with acetone was treated and dried on a glass disc having a diameter of 12 cm so as to be 0.3 μg/cm^2. A pet cup having 6 cm in inner diameter×0.5 cm in height was cut so as to have an entrance, and the pet cup was turned over and placed on the glass disc to make a shelter. A non-treated shelter and a drug-treated shelter were placed in the center of an acrylic box having 30 cm×15 cm, well water and rat feed were added as food, and 15 males and 15 females of German cockroach were released. After 7 days, the number of surviving insects, the number of dead insects, the number of agonizing insects, and the habitat were examined. Further, a KD (knockdown) rate and a repellency rate were calculated by the following equations. KD rate (%)=(the number of dead insects+the number of agonizing insects)/the number of released insects×100 Repellency rate (%)=(1−the number of cockroaches in treated area/(the number of cockroaches in treated area+the number of cockroaches in non-treated area)×100

[2] = test system: bed bug (Cimex lectularius); assay: Drug efficacy test, topical application (50% lethal dose); assay type: in vivo; settings: for 50% lethal dose: female adult, topical application, mortality three days later
Text: (§1) Test drug: a compound represented by Formula (2)
(§2) Test insect: Watarida colony (susceptible strain) of German cockroach (Blattella germanica); Hamamatsu-cho colony (resistant strain) of German cockroach (Blattella germanica); Teikyo University colony (susceptible strain) of bed bug (Cimex lectularius); and Chiba colony (resistant strain) of bed bug (Cimex lectularius),
(§3) Insecticidal test: An acetone solution of a compound represented by Formula (2) was applied to the chest of a target insect female adult by using a topical application device. The mortality was examined six days later for the German cockroach and three days later for the bed bug, and each 50% lethal dose was determined. Further, the resistance ratio was calculated by the following equation. Resistance ratio=50% lethal dose of resistant strain/50% lethal dose of susceptible strain

Denken German cockroach = assay: Forced contact with treated glass disc; assay type: in vivo, Blattella germanica; settings: forcibly brought into contact with glass disc treated at 0.3 μg/cm^2, within 48 hours
Procedure: The Denken German cockroach had 100% knockdown within 48 hours when forcibly brought into contact with a glass disc that had been treated with the compound of Formula (2) and etofenprox so as to have a concentration of 0.3 μg/cm^2.

[3] = test system: German cockroach (Blattella germanica); assay: Drug efficacy test, topical application (50% lethal dose); assay type: in vivo; settings: for 50% lethal dose: female adult, topical application, mortality six days later
Text: as §1, §2, §3

[4] = test system: Watarida colony (susceptible strain) of German cockroach (Blattella germanica); assay: Heat volatilization test; assay type: in vivo; settings: 1 g of sample heated at 300° C., after 15 hours
Procedure: Sample: a compound represented by Formula (2)
Test insect: Watarida colony (susceptible strain) of German cockroach (Blattella germanica)
After 15 hours, examination of life or death was performed on the tested cockroaches, and the fatality rate was calculated.

SMILES | repellent effect (conclusion in words) [1] | Non-treated shelter Number of agonizing insects ([1]; Total (30 released)) | Non-treated shelter Number of dead insects ([1]; Total (30 released)) | Non-treated shelter Number of surviving insects ([1]; Total (30 released)) | Outside the area Number of agonizing insects ([1]; Total (30 released)) | Outside the area Number of dead insects ([1]; Total (30 released)) | Outside the area Number of surviving insects ([1]; Total (30 released)) | Treated shelter Number of agonizing insects ([1]; Total (30 released)) | Treated shelter Number of dead insects ([1]; Total (30 released)) | Treated shelter Number of surviving insects ([1]; Total (30 released)) | KD rate ([1]; Total) | Non-treated shelter Number of agonizing insects ([1]; female (15 released)) | Non-treated shelter Number of dead insects ([1]; female (15 released)) | Non-treated shelter Number of surviving insects ([1]; female (15 released)) | Outside the area Number of agonizing insects ([1]; female (15 released)) | Outside the area Number of dead insects ([1]; female (15 released)) | Outside the area Number of surviving insects ([1]; female (15 released)) | Treated shelter Number of agonizing insects ([1]; female (15 released)) | Treated shelter Number of dead insects ([1]; female (15 released)) | Treated shelter Number of surviving insects ([1]; female (15 released)) | other results
CCOc1ccc(C(C)(C)COCc2cccc(Oc3ccccc3)c2)cc1 [Etofenprox, etofenprox] | has a repellent effect | 0 | 0 | 29 | 0 | 1 | 0 | 0 | 0 | 0 | 3% | 0 | 0 | 15 | 0 | 0 | 0 | 0 | 0 | 0 | Repellency rate ([1]; Total): 100%; KD rate ([1]; female): 0%; Repellency rate ([1]; female): 100%; Non-treated shelter Number of agonizing insects ([1]; male (15 released)): 0; Non-treated shelter Number of dead insects ([1]; male (15 released)): 0; Non-treated shelter Number of surviving insects ([1]; male (15 released)): 14; Outside the area Number of agonizing insects ([1]; male (15 released)): 0; Outside the area Number of dead insects ([1]; male (15 released)): 1; Outside the area Number of surviving insects ([1]; male (15 released)): 0; Treated shelter Number of agonizing insects ([1]; male (15 released)): 0; Treated shelter Number of dead insects ([1]; male (15 released)): 0; Treated shelter Number of surviving insects ([1]; male (15 released)): 0; KD rate ([1]; male): 7%; Repellency rate ([1]; male): 100%; Resistance ratio ([2]; etofenprox to bed bugs, strains not stated): ≥ 10000; knockdown (Denken German cockroach): 100%
CN(C(=O)c1ccccc1)c1cccc(C(=O)Nc2c(Br)cc(C(F)(C(F)(F)F)C(F)(F)F)cc2C(F)(F)F)c1F [Compound represented by Formula (2), 2-fluoro-3-(N-methylbenzamide)-N-(2-bromo-6-trifluoromethyl-4-(heptafluoropropane-2-yl)phenyl)benzamide] | has no repellent effect | 0 | 0 | 0 | 3 | 27 | 0 | 0 | 0 | 0 | 100% | 0 | 0 | 0 | 2 | 13 | 0 | 0 | 0 | 0 | KD rate ([1]; female): 100%; Non-treated shelter Number of agonizing insects ([1]; male (15 released)): 0; Non-treated shelter Number of dead insects ([1]; male (15 released)): 0; Non-treated shelter Number of surviving insects ([1]; male (15 released)): 0; Outside the area Number of agonizing insects ([1]; male (15 released)): 1; Outside the area Number of dead insects ([1]; male (15 released)): 14; Outside the area Number of surviving insects ([1]; male (15 released)): 0; Treated shelter Number of agonizing insects ([1]; male (15 released)): 0; Treated shelter Number of dead insects ([1]; male (15 released)): 0; Treated shelter Number of surviving insects ([1]; male (15 released)): 0; KD rate ([1]; male): 100%; Resistance ratio ([2]; 50% lethal dose of resistant strain (Chiba)/susceptible strain (Teikyo University)): 11.4; 50% lethal dose ([2]; Chiba colony (resistant strain)): 14.8 ng/insect; 50% lethal dose ([2]; Teikyo University colony (susceptible strain)): 1.3 ng/insect; Resistance ratio ([3]; 50% lethal dose of resistant strain (Hamamatsu-cho)/susceptible strain (Watarida)): 1.9; 50% lethal dose ([3]; Hamamatsu-cho colony (resistant strain)): 21.5 ng/insect; 50% lethal dose ([3]; Watarida colony (susceptible strain)): 11.2 ng/insect; fatality rate ([4]; inside the slit box): 100%; fatality rate ([4]; outside the slit box): 100%; knockdown (Denken German cockroach): 100%
